How the values were obtained:
[1] = molecular target: T1, human mGluR2 (hmGluR2) transiently over-expressed in HEK-293 cells (Homo sapiens, UniProt Q14416); assay: Human mGluR2 negative allosteric modulator evaluation using Ca++ functional assay (agonist and NAM activity); assay type: cell-based; conditions: hmGluR2 in HEK-293 cells, EC80 glutamate, Fluo4AM calcium readout; read-out: mGluR2 negative allosteric modulator activity IC50
T1 construct: expressed in transfected cells; host or cells: HEK-293 cells, transient co-transfection by electroporation
Method: Human mGluR2 Negative Allosteric Modulator Evaluation Using Ca^++ Functional Assay
Compounds of the present invention were tested successively for their agonist and negative allosteric modulator activities on human mGluR2 (hmGluR2) transiently over-expressed in HEK-293 cells. They exert agonist activity if they are able to activate mGluR2 by themselves, i.e., in absence of the endogenous agonist glutamate; and they exert negative allosteric modulator activity if they decrease the action of the endogenous agonist glutamate.
HEK-293 cells were maintained in Modified Eagle's Medium supplemented with 10% Foetal Calf Serum, 1% Penicillin/Streptomycin and 1% nonessential amino acids at 37° C./5% CO2.
Cells were plated after transfection onto polyornithine coated, clear bottom, black-walled, 96-well plates and cultured for 24 h.
Receptor activity was detected by changes in intracellular calcium measured using the fluorescent Ca^2+ sensitive dye, Fluo4AM (Molecular Probes).
The day of the assay, medium was aspirated and replaced during 3 hours by medium without serum supplemented with 1% Glutamax, 1% Penicillin/Streptomycin and 1% nonessential amino acids. Then, cells were washed with freshly prepared buffer B (HBSS 1× (PAA), Hepes 20 mM, MgSO4-7H2O 1 mM, Na2CO3 3.3 mM, CaCl2-2H2O 1.3 mM, 0.5% BSA, Probenecid 2.5 mM) and loaded at 37° C./5% CO2 for 1.5 hours with buffer B containing 1 μM Fluo4AM, 0.1 mg/mL Pluronic Acid, 7 μg/mL Glutamate Pyruvate Transaminase and 2 mM sodium pyruvate. Afterwards cells were washed twice with buffer B and 50 μL of this buffer were added to each well.
Agonist and negative allosteric modulator activities of compounds were consecutively evaluated on the same cells plate. […] Then, the cells were stimulated by an EC80 glutamate concentration and fluorescence was recorded for additional 60 s. EC80 glutamate concentration is the concentration giving 80% of the maximal glutamate response. Agonist and/or negative allosteric modulator activity(ies) were evaluated in comparison to basal signal or signal evoked by EC80 glutamate alone, respectively.
For potency determination, a dose-response test was performed using 8 concentrations of each compound of the invention. Dose-response curves were fitted using the sigmoidal dose-response (variable slope) analysis in GraphPad Prism program (Graph Pad Inc) and EC50 of agonist/IC50 of negative allosteric modulator activity was calculated. Dose-response experiments were all performed in duplicate, two times independently.

T1 sequence (Q14416 19-872): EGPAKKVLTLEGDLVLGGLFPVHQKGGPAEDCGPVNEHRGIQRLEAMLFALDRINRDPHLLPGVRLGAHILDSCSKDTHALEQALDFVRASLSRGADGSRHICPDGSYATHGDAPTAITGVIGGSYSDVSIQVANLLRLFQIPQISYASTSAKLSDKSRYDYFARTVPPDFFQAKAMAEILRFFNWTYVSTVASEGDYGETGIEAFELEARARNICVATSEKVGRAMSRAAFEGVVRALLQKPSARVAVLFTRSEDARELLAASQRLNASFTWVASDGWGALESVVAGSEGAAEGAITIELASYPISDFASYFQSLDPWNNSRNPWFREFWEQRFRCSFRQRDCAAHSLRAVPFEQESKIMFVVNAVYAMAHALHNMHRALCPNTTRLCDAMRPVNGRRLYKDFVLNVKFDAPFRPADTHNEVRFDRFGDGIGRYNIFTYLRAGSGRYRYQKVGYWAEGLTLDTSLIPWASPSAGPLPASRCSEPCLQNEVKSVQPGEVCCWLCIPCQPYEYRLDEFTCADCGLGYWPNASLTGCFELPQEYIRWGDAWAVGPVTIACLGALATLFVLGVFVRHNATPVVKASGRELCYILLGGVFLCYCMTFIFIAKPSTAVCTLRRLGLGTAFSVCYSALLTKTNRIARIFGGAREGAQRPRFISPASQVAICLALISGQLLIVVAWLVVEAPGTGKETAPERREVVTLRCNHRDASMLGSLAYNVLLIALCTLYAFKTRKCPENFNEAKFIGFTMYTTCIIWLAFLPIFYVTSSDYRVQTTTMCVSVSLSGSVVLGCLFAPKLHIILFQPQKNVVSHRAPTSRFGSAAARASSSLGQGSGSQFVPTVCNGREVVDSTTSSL

Row | SMILES | melting point [°C] | IC50 [1] [nM]
1 | CCCc1cc2n(C)c(=O)c3ccc(-c4ccc(N)nc4)cc3n2n1.Cl [Example 50, 8-(6-Amino-pyridin-3-yl)-4-methyl-2-propyl-4H-pyrazolo[1,5-a]quinazolin-5-one] | > 250 | < 1000
2 | CCCn1c(=O)c2ccc(-c3ccc(N)nc3)cc2n2nc(-c3ccccc3)cc12.Cl [Example 44, 8-(6-Amino-pyridin-3-yl)-2-phenyl-4-propyl-4H-pyrazolo[1,5-a]quinazolin-5-one] | > 250 | < 1000
3 | Cl.Cn1cc(-c2cc3n(C)c(=O)c4ccc(-c5ccc(N)nc5)cc4n3n2)cn1 [Example 128, 8-(6-Amino-pyridin-3-yl)-4-methyl-2-(1-methyl-1H-pyrazol-4-yl)-4H-pyrazolo[1,5-a]quinazolin-5-one] | 217 to 228 | < 1000
4 | Cc1cc(-c2ccc3c(=O)n(C)c4cc(C5CCCC5)nn4c3c2)cc(C)n1.Cl [Example 66, 2-Cyclopentyl-8-(2,6-dimethyl-pyridin-4-yl)-4-methyl-4H-pyrazolo[1,5-a]quinazolin-5-one] | > 250 | < 1000
5 | Cl.Cn1c(=O)c2ccc(-c3ccc(N)nn3)cc2n2nc(-c3ccccc3)cc12 [Example 29, 8-(6-Amino-pyridazin-3-yl)-4-methyl-2-phenyl-4H-pyrazolo[1,5-a]quinazolin-5-one] | > 250 | < 1000
6 | Cl.Cn1c(=O)c2ccc(-c3cnc(N)cn3)cc2n2nc(-c3ccccc3)cc12 [Example 30, 8-(5-Amino-pyrazin-2-yl)-4-methyl-2-phenyl-4H-pyrazolo[1,5-a]quinazolin-5-one] | 192 to 193 | < 1000
7 | Cc1cc(-c2ccc3c(=O)n(C)c4cc(C5CCCCO5)nn4c3c2)cc(C)n1.Cl (stereo not drawn) [Example 109, 8-(2,6-Dimethyl-pyridin-4-yl)-4-methyl-2-(tetrahydro-pyran-2-yl)-4H-pyrazolo[1,5-a]quinazolin-5-one] | 186 to 194 | < 1000
8 | Cl.Cn1c(=O)c2ccc(-c3ccc(N)nc3)cc2n2nc(C3CCCC3)cc12 [Example 65, 8-(6-Amino-pyridin-3-yl)-2-cyclopentyl-4-methyl-4H-pyrazolo[1,5-a]quinazolin-5-one] | > 250 | < 1000
9 | Cn1cc(-c2ccc3c(=O)n(C)c4cc(-c5ccccc5)nn4c3c2)cn1 [Example 16, 4-Methyl-8-(1-methyl-1H-pyrazol-4-yl)-2-phenyl-4H-pyrazolo[1,5-a]quinazolin-5-one] | > 250 | < 1000
10 | Cc1n[nH]c(C)c1-c1ccc2c(=O)n(C)c3cc(-c4ccccc4)nn3c2c1 [Example 15, 8-(3,5-Dimethyl-1H-pyrazol-4-yl)-4-methyl-2-phenyl-4H-pyrazolo[1,5-a]quinazolin-5-one] | > 250 | < 1000
11 | Cc1n[nH]c(C)c1-c1ccc2c(=O)n(C)c3cc(-c4ccnc(C(F)(F)F)c4)nn3c2c1 [Example 145, 8-(3,5-Dimethyl-1H-pyrazol-4-yl)-4-methyl-2-(2-trifluoromethyl-pyridin-4-yl)-4H-pyrazolo[1,5-a]quinazolin-5-one] | > 250 | < 1000
12 | Cl.Cn1c(=O)c2ccc(-c3ccc(N)nc3)cc2n2nc(C3CCS(=O)(=O)CC3)cc12 [Example 84, 8-(6-Amino-pyridin-3-yl)-2-(1,1-dioxo-tetrahydro-2H-thiopyran-4-yl)-4-methyl-4H-pyrazolo[1,5-a]quinazolin-5-one] | > 250 | < 1000
13 | Cl.Nc1ccc(-c2ccc3c(=O)n(CC(F)F)c4cc(C5CCOCC5)nn4c3c2)cn1 [Example 103, 8-(6-Amino-pyridin-3-yl)-4-(2,2-difluoro-ethyl)-2-(tetrahydro-pyran-4-yl)-4H-pyrazolo[1,5-a]quinazolin-5-one] | > 250 | < 1000
14 | Cl.Cn1c(=O)c2ccc(-c3ccc(N)nc3)cc2n2nc(C3CCC3)cc12 [Example 64, 8-(6-Amino-pyridin-3-yl)-2-cyclobutyl-4-methyl-4H-pyrazolo[1,5-a]quinazolin-5-one] | > 250 | < 1000
15 | Cn1cc(-c2ccc3c(=O)n(C)c4cc(-c5cccnc5)nn4c3c2)cn1 [Example 85, 4-Methyl-8-(1-methyl-1H-pyrazol-4-yl)-2-pyridin-3-yl-4H-pyrazolo[1,5-a]quinazolin-5-one] | > 250 | < 1000
16 | CCc1ncccc1-c1ccc2c(=O)n(C)c3cc(-c4ccnc(C(F)(F)F)c4)nn3c2c1.Cl [Example 137, 8-(2-Ethyl-pyridin-3-yl)-4-methyl-2-(2-trifluoromethyl-pyridin-4-yl)-4H-pyrazolo[1,5-a]quinazolin-5-one] | > 250 | < 1000
17 | Cc1cc(-c2cc3n(C)c(=O)c4ccc(-c5ccccc5)cc4n3n2)cc(C)n1.Cl [Example 115, 2-(2,6-Dimethyl-pyridin-4-yl)-4-methyl-8-phenyl-4H-pyrazolo[1,5-a]quinazolin-5-one] | > 250 | < 1000
18 | CC(=O)c1cccc(-c2ccc3c(=O)n(C)c4cc(-c5ccccc5)nn4c3c2)c1 [Example 14, 8-(3-Acetyl-phenyl)-4-methyl-2-phenyl-4H-pyrazolo[1,5-a]quinazolin-5-one] | 207 to 209 | < 1000
19 | Cl.Cn1c(=O)c2ccc(-c3ccc(N)nc3)cc2n2cc(-c3ccccc3)cc12 [Example 110, 8-(6-Amino-pyridin-3-yl)-4-methyl-2-phenyl-4H-pyrrolo[1,2-a]quinazolin-5-one] | > 250 | < 1000
20 | Cl.Cn1c(=O)c2ccc(-c3ccc(N)nc3)cc2n2nc(C3CCCCC3)cc12 [Example 74, 8-(6-Amino-pyridin-3-yl)-2-cyclohexyl-4-methyl-4H-pyrazolo[1,5-a]quinazolin-5-one] | 194 to 197 | < 1000
21 | Cl.Cn1c(=O)c2ccc(-c3ccc(N)nc3)cc2n2nc(-c3ccc(F)cc3)cc12 [Example 80, 8-(6-Amino-pyridin-3-yl)-2-(4-fluoro-phenyl)-4-methyl-4H-pyrazolo[1,5-a]quinazolin-5-one] | > 250 | < 1000
22 | Cc1[nH]ncc1-c1ccc2c(=O)n(C)c3cc(C4CCOCC4)nn3c2c1 [Example 92, 4-Methyl-8-(5-methyl-1H-pyrazol-4-yl)-2-(tetrahydro-pyran-4-yl)-4H-pyrazolo[1,5-a]quinazolin-5-one] | 223 to 229 | < 1000
23 | Cl.Cn1c(=O)c2ccc(-c3ccc(N)nc3)cc2n2nc(-c3ccco3)cc12 [Example 82, 8-(6-Amino-pyridin-3-yl)-2-furan-2-yl-4-methyl-4H-pyrazolo[1,5-a]quinazolin-5-one] | 218 to 229 | < 1000
24 | Cl.Nc1ccc(-c2ccc3c(=O)n(CC(F)(F)F)c4cc(C5CCOCC5)nn4c3c2)cn1 [Example 104, 8-(6-Amino-pyridin-3-yl)-2-(tetrahydro-pyran-4-yl)-4-(2,2,2-trifluoro-ethyl)-4H-pyrazolo[1,5-a]quinazolin-5-one] | > 250 | < 1000

From patent US9434734B2, “Substituted pyrazoloquinazolinones and pyrroloquinazolinones as allosteric modulators of group II metabotropic glutamate receptors” (Domain Therapeutics, priority 2012, dated 2016)
